PMC10610505, “Synthesis and Biological Evaluation of Some New 3-Aryl-2-thioxo-2,3-dihydroquinazolin-4(1H)-ones and 3-Aryl-2-(benzylthio)quinazolin-4(3H)-ones as Antioxidants; COX-2, LDHA, α-Glucosidase and α-Amylase Inhibitors; and Anti-Colon Carcinoma and Apoptosis-Inducing Agents” (Pharmaceuticals, 2023)
“And” between values parts separate entries of the source, which are not always exact repeats. Equal entries are not always repeated. Where two headings read alike, the source gives them in different places.

Legend:
[1] = test system: LoVo human colon carcinoma cells; assay: Viability assay (LDH release), LoVo; assay type: cell-based; conditions: for viability at 200 µg/mL: 48 h, read-out: Mean % of viable cells ± SD, LoVo; for IC50: from concentration–response curves
How it was run: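 LoVo human colon carcinoma cells were grown for 24 h at 37 °C in a humidified 5% CO2 incubator in Dulbecco's Modified Eagle's Medium containing 10% FBS, then exposed to test samples for 48 h. Lactate dehydrogenase released into the supernatant was measured by ELISA end-point assay at 550 nm, using 0.1% Triton X-100 as positive control and medium alone as negative control. Viability was reported as mean % ± SD (n = 3) and compared against HUVEC cells.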

[2] = Viability assay (LDH release), HUVEC; assay type: cell-based, human; conditions: human
Description: The samples were diluted in Dulbecco’s Modified Eagle’s Medium, consisting of 10% fetal bovine serum (FBS), added to cells grown and cultured for 24 h in a 5% CO2-humidified incubator at 37 °C. Thereafter, the activity of lactate dehydrogenase released from damaged cells was determined in the collected supernatant aliquots using an ELISA end-point assay (Benchmark Plus, Bio-Rad, CA, USA); 0.1% Triton X-100 in the assay medium and the assay medium only were used as the positive and negative controls, respectively. Cell viability was expressed as a relative percentage of the OD values (at 550 nm) for compound-treated cells (final concentration of 200 µg /mL) and the negative control, which was shown as the mean % ± SD (n = 3). The results of the viability assays for the potential cytotoxic candidates were compared with the % of viable human umbilical vein endothelial cells (HUVEC) at the same concentration. These cells were grown in Dulbecco’s Modified Eagle’s Medium (PAN-Biotech; Barcelona, Spain) containing 10% FBS (Sigma Aldrich; St. Quentin-Fallavier, France), 2 mM Glutamine (Sigma Aldrich), 100 units/mL penicillin and […] streptomycin (Life Technologies; Paisley, UK).

Bax gene = assay: qRT-PCR expressional level of Bax gene; assay type: cell-based, human; conditions: 10 µg/mL, HCT-116 and LoVo cells, vs negative control
Description: Considering these facts, enhancing apoptosis has been extensively studied as a potential drug target in cancer therapy, therefore, in this study, we investigated the effects of the most cytotoxic compounds, 3a and 3f, (at 10 µg/mL, 24 h incubation) on the expressional levels of these apoptotic regulator genes (Bax and Bcl-2) using quantitative reverse transcription–polymerase chain reactions (qRT-PCR).
Briefly, in a 25 mL flask (1 × 10^6 cells/flask), the human colon cancer cell lines (HCT-116 and LoVo) were grown for 24 h. After replacing the culture media with a medium containing 1% FBS for 24 h, the cells were treated with 10 µg/mL of each tested compound in 2 mL of fresh medium containing 1% FBS, or 0.25% DMSO, which was used as the negative control. The cells were adherent cells and they were detached using trypsin after being washed with ice-cold phosphate-buffered saline (PBS).
Primers specific for the Bax, Bcl-2 and Caspase-3 genes were designed using the primer blast (https://www.ncbi.nlm.nih.gov/tools/primer-blast/ accessed on 9 January 2023) software. The primers were used in the RT-qPCR analysis to amplify fragments of 100–200 bp in length (Table 11).
The RNeasy Mini Kit (Qiagen, Hilden, Germany) was used to extract the total RNA. The RNA purity, quality and quantity were checked using a Nanodrop 8000 spectrophotometer (Thermo Fisher Scientific, USA). […]

HCT-116 carcinoma cells = assay: Cell cycle assay (PI flow cytometry), HCT-116; assay type: cell-based, human; conditions: 50 µg/mL, 48 h
Description: (§1) In the current study, the cell cycle distribution of the treated HCT-116 and LoVo carcinoma cells with compounds 3a and 3f was assessed by labeling the cell’s DNA with PI stain in order to determine if the induction of apoptosis in carcinoma cells could be related to the cell cycle arrest (Figure 8A–F). The intensity of the PI stain is proportional to the cell’s DNA content (Figure 9). […] The ability of the tested compounds (3a and 3f) to block the cell cycle progression in LoVo and HCT-116 cells confirmed their anticancer potential against these colon carcinoma cell lines and could explain the mechanism of the observed cytotoxicity.
(§2) Changes in cell cycle distribution induced by compounds 3a and 3f were analyzed using a flow cytometric analysis according to Nicoletti et al. 1991 [108] using a Propidium Iodide Flow Cytometry Kit for Cell Cycle Analysis (Abcam-UK). HCT-116 and LoVo carcinoma cells (5 × 10^4 cells/mL) were treated with DMSO as a negative control, and compounds 3a and 3f (50 µg/mL), for 48 h. After the centrifugation of the treated cells at 1800 rpm for 5 min, the pellet was washed twice with PBS. Then, the cells were fixed by mixing […] of 90% cold ethanol, and stained with propidium iodide (PI) for 1 h at 37 °C. […] The stained cells were analyzed for their DNA content using a BD FACSC flow cytometer.

LoVo carcinoma cells = assay: Cell cycle assay (PI flow cytometry), LoVo; assay type: cell-based, human; conditions: 50 µg/mL, 48 h
Description: as §1, §2

Row | SMILES | viability at 200 µg/mL ([1]; Homo sapiens, LoVo) [%] | IC50 ([1]; Homo sapiens, LoVo) | IC50 [1] [µM] | viability at 200 µg/mL ([2]; human umbilical vein endothelial cells (HUVEC), 200 µg/mL, read-out: Mean % of viable cells ± SD, HUVEC) [%] | Expression level of Bax gene (Bax gene) | Cells in G1 phase (%DIP G1) (HCT-116 carcinoma cells) [%] | Cells in G2/M phase (%DIP G2/M) (LoVo carcinoma cells) [%] | viability at 200 µg/mL [2] [%]
1 | O=c1c2cc(Cl)ccc2[nH]c(=S)n1-c1cccc(C(F)(F)F)c1 [Compound 3a, 6-Chloro-2-thioxo-3-(3-trifluoromethyl-phenyl)-2,3-dihydro-1H-quinazolin-4-one] | 23.5 ± 1.5 | 294 µM and 105 µg/mL | 294 | 97 ± 2.65 | upregulate | 53.51 | 22.64 | –
2 | O=c1c2cc(Cl)ccc2[nH]c(=S)n1-c1ccc([N+](=O)[O-])cc1 [Compound 3f, 6-Chloro-3-(4-nitro-phenyl)-2-thioxo-2,3-dihydro-1H-quinazolin-4-one] | 22.7 ± 2.08 | 384 µM and 128 µg/mL | 384 | – | upregulate | 57.81 | 29.16 | 99.67 ± 0.577
